# Measured values: patent US20030119913A1, “Method for increasing serotonin levels in a person by administration of a composition incorporating (-)-hydroxycitric acid, and related compositions thereof” (priority 2001, published 2003)
# Legend:
# rat brain cortex slices = experiment: Radiolabeled serotonin release from isolated, superfused rat brain cortex slices in vitro; assay type: cell-based
# Method: Methods previously known for studies of radiolabeled serotonin release were employed. Isolated rat brain cortex slices were incubated in oxygenated Krebs buffer solution containing 800 nM radiolabeled serotonin, the monoamine oxidase inhibitor pargyline (10 μM), and the cyclooxygenase inhibitor flurbiprofen (3 μM) at 37° C. […] Radiolabeled serotonin was purchased from NEN Life Sciences, Boston, Mass. The Krebs solution used had the following composition (millimolar): potassium chloride, 4.8; sodium chloride 118; calcium chloride, 1.3; potassium dihydrogen phosphate, 1.2; sodium bicarbonate, 25; magnesium sulfate, 2.0; and dextrose, 10 (pH 7.4).
# After incubation, tissues were rinsed, mounted between nylon mesh-cloth and placed in thermostatically-controlled superfusion chambers. Tissues were superfused at a rate of 0.5 ml/min with oxygenated Krebs solution containing clomipramine (10 μM), a serotonin reuptake inhibitor. Fractions of the superfusate were collected at 6-minute intervals, and 3-ml aliquots of each fraction was combined with 12 ml of aqueous scintillation cocktail marketed under the name Ecolume, by ICN Radiochemicals of California) and analyzed for radioactivity by liquid scintillation spectrometry.
# After an initial 2 hours of superfusion to establish a stable baseline of spontaneous tritium efflux, release of radiolabeled serotonin was elicited by consecutive potassium-depolarizing (K+, 50 mM) stimuli applied at 144 minutes (S1) and at 198 minutes (S2) after the onset of superfusion. In some experiments, tissues were exposed to different concentrations of HCA for 12 minutes before the second K+ stimuli at S2. When HCA was tested on its own, the K+ (50 mM; S1) peak was used as the standard (or control) response. In this case, effects induced by HCA on radiolabeled serotonin release were then compared with the standard K+ response. Both K+ and HCA-induced radiolabeled serotonin release were estimated by subtraction of the extrapolated basal tritium efflux from total tritium release in the 20-minute period after the onset of stimulation. Basal (unstimulated) tritium efflux was assumed to decline linearly between pre-stimulation and post-stimulation fractions. Stimulation-evoked radiolabeled serotonin release during S1 and S2 was determined graphically, and the ratio of the two peaks (S1/S2) was calculated and compared with untreated control preparations.
# Results obtained were expressed as absolute S1/S2 ratios. Data from different experiments (control and test) were pooled and then subjected to statistical analysis. Except where indicated otherwise, values given are arithmetic means ±SEM. Significance of difference between control and test values was evaluated using analysis of variance (ANOVA) followed by Dunnett's test. […]
# [1] = tested on: moderately obese human subjects; experiment: Double-blind, placebo-controlled human clinical trial (serum serotonin, body weight, food intake); assay type: in vivo
# Method: The effects of administering compositions within the scope of the present invention were tested. A double-blind, placebo-controlled human clinical trial was conducted using a composition incorporating: the HCA extract described above, or the HCA extract in combination with an oxygen-coordinated niacin-bound chromium (ChromeMate®, supplied by InterHealth), and a standardized Gymnema sylvestre extract (also supplied by InterHealth). Approximately 80 moderately obese human subjects were enrolled in the study. All subjects were placed on a daily diet of 2,000 kcal, weighing 2,250 grams. All food was prepared and delivered to the subjects, and all food intake was strictly supervised by trained dieticians. All subjects also underwent a 30 minute walking exercise program, five times a week, which was supervised by a trained exercise specialist. The subjects were randomly divided into three groups. The first group was given a placebo. The second group was given a daily dose of 4,667 mg of garcinia cambogia extract (providing 2,800 mg HCA per day). The third group was given a daily dose of 4,667 mg of a combination of garcinia cambogia (2,800 mg HCA), 4 mg of niacin-bound chromium (providing 400 mcg of elemental chromium), and 400 mg of Gymnema sylvestre extract (providing 100 mg […]). The subjects received their respective compositions in three equally-divided doses 30 to 60 minutes before breakfast, lunch and dinner for eight weeks. These dosage levels of HCA were determined by extrapolation of successful earlier animal trials, as well as review of optimal micromolar concentrations of HCA in ex vivo brain tissue resulting in maximum serotonin release. The persons were assessed for changes in serum serotonin levels, body weight, and food intake. As discussed above, increases in serum serotonin levels relate to reduced appetite. Food intake was measured by monitoring the amount of food left unconsumed after each meal by the subjects. The amount of food left unconsumed while taking either the placebo or either of the HCA compositions was compared to the amount of food left unconsumed before the subjects began taking the compositions (i.e., the baseline). Changes in each of these factors were measured in the persons and averaged to produce the figures in Table 1.
# [2] = eight weeks, 2,800 mg HCA per day orally in three doses
compound,measurement,setting,value
"O=C(O)CC(O)(C(=O)O)C(O)C(=O)O (single isomer, unassigned; (-)) [HCA, (−)-hydroxycitric acid]","Effect on second K+ response (K+-depolarization evoked radiolabeled serotonin release, S2)",rat brain cortex slices; HCA 10 μM-1 mM applied 12 minutes before second K+ (50 mM) stimulus,no significant effect
same,Effect on basal efflux of radiolabeled serotonin,"rat brain cortex slices; HCA 10 μM-1 mM, rat brain cortex slices",concentration-related increase
same,Overflow of radiolabeled serotonin compared with standard K+ (50 mM) response,rat brain cortex slices; HCA 300 μM (maximal concentration),equivalent to the release induced by the standard concentration of K+ (50 mM)
same,Concentration giving maximum basal efflux of radiolabeled serotonin,rat brain cortex slices; tested range 10 μM-1 mM,300 µM
same,"Body weight, % decrease",[1]; [2],5.0%
same,"Serum serotonin level, % increase",[1]; [2],48.5%
same,"Serum serotonin level, mg/dl increase",[1]; [2],119.1 mg/dL
same,"Body weight, pounds lost","[1]; eight weeks, 2,800 mg HCA per day orally in three doses, 2,000 kcal diet and exercise",10.0 pounds
same,"Food left unconsumed, % increase from baseline","[1]; eight weeks, compared with before taking the compositions",206%
same,"Food left unconsumed, grams","[1]; eight weeks, daily diet weighing 2,250 grams",249 grams
